Source: PubChem BioAssay (NCI)
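Five concentrations, 48 hours, 96-well plates. GI50 marks 50% less growth. TGI denotes the concentration required for complete inhibition of growth.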

Key:
Test in all cases: DTP human tumour cell line panel, 48 h
[1] = tested on: NCI-H23 lung
[2] = tested on: NCI-H460 lung
[3] = tested on: NCI-H522 lung
[4] = tested on: NCI/ADR-RES ovarian
[5] = tested on: OVCAR-3 ovarian
[6] = tested on: OVCAR-4 ovarian
[7] = tested on: OVCAR-5 ovarian
[8] = tested on: OVCAR-8 ovarian
[9] = tested on: PC-3 prostate
[10] = tested on: RPMI-8226 leukemia
[11] = tested on: RXF 393 renal
[12] = tested on: SF-268 CNS
[13] = tested on: SF-295 CNS
[14] = tested on: SF-539 CNS
[15] = tested on: SK-MEL-2 melanoma
[16] = tested on: SK-MEL-28 melanoma
[17] = tested on: SK-MEL-5 melanoma
[18] = tested on: SK-OV-3 ovarian
[19] = tested on: SN12C renal
[20] = tested on: SNB-19 CNS
[21] = tested on: SNB-75 CNS
[22] = tested on: SR leukemia
[23] = tested on: SW-620 colon
[24] = tested on: T-47D breast
[25] = tested on: TK-10 renal
[26] = tested on: U251 CNS
[27] = tested on: UACC-257 melanoma
[28] = tested on: UACC-62 melanoma
[29] = tested on: UO-31 renal

In the case of `O=C1NC(=NCCc2cccs2)S/C1=C\c1ccc2ncccc2c1`, the TGI [1] is reported as greater than 25 µM, the GI50 [2] is reported as 10.3 µM and the TGI [2] is reported as greater than 25 µM. For the same compound, the GI50 [3] was 7.33 µM, the TGI [3] was greater than 25 µM and the GI50 [4] was 15.3 µM. It also gave a TGI [4] greater than 25 µM, a GI50 [5] of 10.1 µM and a TGI [5] greater than 25 µM. It also gave a GI50 [6] of 13.2 µM, a TGI [6] greater than 25 µM and a GI50 [7] greater than 20.4 µM. For the same compound, the TGI [7] was greater than 25 µM, the GI50 [8] was 10.3 µM and the TGI [8] was greater than 25 µM. For the same compound, the GI50 [9] was greater than 20 µM, the TGI [9] was greater than 25 µM and the GI50 [10] was 11.6 µM. For the same compound, the TGI [10] was greater than 25 µM, the GI50 [11] was 7.68 µM and the TGI [11] was greater than 25 µM. The GI50 [12] was 10 µM, the TGI [12] was greater than 25 µM and the GI50 [13] was 9.56 µM. For the same compound, the TGI [13] was greater than 25 µM, the GI50 [14] was 7.54 µM and the TGI [14] was greater than 25 µM. It also gave a GI50 [15] greater than 18.8 µM, a TGI [15] greater than 25 µM and a GI50 [16] of 24.4 µM. The TGI [16] was greater than 25 µM, the GI50 [17] was 8.5 µM and the TGI [17] was greater than 25 µM. It also gave a GI50 [18] of 9.36 µM, a TGI [18] greater than 25 µM and a GI50 [19] of 8.78 µM. For the same compound, the TGI [19] was greater than 25 µM, the GI50 [20] was 9.64 µM and the TGI [20] was greater than 25 µM. It also gave a GI50 [21] of 5.91 µM, a TGI [21] greater than 22.6 µM and a GI50 [22] of 2230 nM. It also gave a TGI [22] of 14.2 µM, a GI50 [23] of 8.2 µM and a TGI [23] greater than 25 µM. The GI50 [24] was 10.1 µM, the TGI [24] was greater than 25 µM and the GI50 [25] was 7.77 µM. It also gave a TGI [25] greater than 25 µM, a GI50 [26] of 8.79 µM and a TGI [26] greater than 25 µM. It also gave a GI50 [27] greater than 19.3 µM, a TGI [27] greater than 25 µM and a GI50 [28] of 9.51 µM. The TGI [28] was greater than 25 µM, the GI50 [29] was 11.4 µM and the TGI [29] was greater than 25 µM.
